According to patent US8927717B1, “Thiochromeno[2,3-c]quinolin-12-one derivatives, preparation method and application thereof” (National Defense Medical Center, priority 2014, dated 2015):

What was measured:
NCI-H522 = type: cell-based; details: Non-small cell lung cancer; 10^−5 molar; 48 hours; SRB
HCT-116 = type: cell-based; details: Colon cancer; 10^−5 molar; 48 hours; SRB
60 cancer cell lines = experiment: NCI 60-cell screen, SRB, whole panel (mean, delta, range); type: cell-based; details: 10^−5 molar, 48 hours, SRB
MDA-MB-231/ATCC = type: cell-based; details: Breast cancer; 10^−5 molar; 48 hours; SRB
HL-60(TB) = type: cell-based; details: Leukemia; 10^−5 molar; 48 hours; SRB
OVCAR-8 = type: cell-based; details: Ovarian cancer; 10^−5 molar; 48 hours; SRB
HOP-62 = type: cell-based; details: Non-small cell lung cancer; 10^−5 molar; 48 hours; SRB
NCI-H23 = type: cell-based; details: Non-small cell lung cancer; 10^−5 molar; 48 hours; SRB
SK-MEL-5 = type: cell-based; details: Melanoma; 10^−5 molar; 48 hours; SRB
ACHN = type: cell-based; details: Renal cancer; 10^−5 molar; 48 hours; SRB
SF-539 = type: cell-based; details: CNS cancer; 10^−5 molar; 48 hours; SRB
MALME-3M = type: cell-based; details: Melanoma; 10^−5 molar; 48 hours; SRB
HT29 = type: cell-based; details: Colon cancer; 10^−5 molar; 48 hours; SRB
786-0 = type: cell-based; details: Renal cancer; 10^−5 molar; 48 hours; SRB
UACC-62 = type: cell-based; details: Melanoma; 10^−5 molar; 48 hours; SRB
U251 = type: cell-based; details: CNS cancer; 10^−5 molar; 48 hours; SRB
HOP-92 = type: cell-based; details: Non-small cell lung cancer; 10^−5 molar; 48 hours; SRB
CAKI-1 = type: cell-based; details: Renal cancer; 10^−5 molar; 48 hours; SRB
RPMI-8226 = type: cell-based; details: Leukemia; 10^−5 molar; 48 hours; SRB
A549/ATCC = type: cell-based; details: Non-small cell lung cancer; 10^−5 molar; 48 hours; SRB
CCRF-CEM = type: cell-based; details: Leukemia; 10^−5 molar; 48 hours; SRB
MOLT-4 = type: cell-based; details: Leukemia; 10^−5 molar; 48 hours; SRB
T-47D = type: cell-based; details: Breast cancer; 10^−5 molar; 48 hours; SRB
BT-549 = type: cell-based; details: Breast cancer; 10^−5 molar; 48 hours; SRB
HCT-15 = type: cell-based; details: Colon cancer; 10^−5 molar; 48 hours; SRB
SW-620 = type: cell-based; details: Colon cancer; 10^−5 molar; 48 hours; SRB
OVCAR-5 = type: cell-based; details: Ovarian cancer; 10^−5 molar; 48 hours; SRB
LOX IMVI = type: cell-based; details: Melanoma; 10^−5 molar; 48 hours; SRB
SNB-75 = type: cell-based; details: CNS cancer; 10^−5 molar; 48 hours; SRB
UACC-257 = type: cell-based; details: Melanoma; 10^−5 molar; 48 hours; SRB
NCI-H226 = type: cell-based; details: Non-small cell lung cancer; 10^−5 molar; 48 hours; SRB
SF-268 = type: cell-based; details: CNS cancer; 10^−5 molar; 48 hours; SRB
UO-31 = type: cell-based; details: Renal cancer; 10^−5 molar; 48 hours; SRB
HCC-2998 = type: cell-based; details: Colon cancer; 10^−5 molar; 48 hours; SRB
PC-3 = type: cell-based; details: Prostate cancer; 10^−5 molar; 48 hours; SRB
SK-MEL-2 = type: cell-based; details: Melanoma; 10^−5 molar; 48 hours; SRB
HS 578T = type: cell-based; details: Breast cancer; 10^−5 molar; 48 hours; SRB
SNB-19 = type: cell-based; details: CNS cancer; 10^−5 molar; 48 hours; SRB
TK-10 = type: cell-based; details: Renal cancer; 10^−5 molar; 48 hours; SRB
K-562 = type: cell-based; details: Leukemia; 10^−5 molar; 48 hours; SRB
KM12 = experiment: cells; type: cell-based; details: Colon cancer; 10^−5 molar; 48 hours; SRB
SK-OV-3 = type: cell-based; details: Ovarian cancer; 10^−5 molar; 48 hours; SRB
A498 = type: cell-based; details: Renal cancer; 10^−5 molar; 48 hours; SRB
SN12C = type: cell-based; details: Renal cancer; 10^−5 molar; 48 hours; SRB
NCI-H460 = type: cell-based; details: Non-small cell lung cancer; 10^−5 molar; 48 hours; SRB
MDA-MB-486 = type: cell-based; details: Breast cancer; 10^−5 molar; 48 hours; SRB
OVCAR-4 = type: cell-based; details: Ovarian cancer; 10^−5 molar; 48 hours; SRB
RXF 393 = type: cell-based; details: Renal cancer; 10^−5 molar; 48 hours; SRB
MCF7 = type: cell-based; details: Breast cancer; 10^−5 molar; 48 hours; SRB
DU-145 = type: cell-based; details: Prostate cancer; 10^−5 molar; 48 hours; SRB
IGROV1 = type: cell-based; details: Ovarian cancer; 10^−5 molar; 48 hours; SRB
COLO 205 = type: cell-based; details: Colon cancer; 10^−5 molar; 48 hours; SRB
SK-MEL-28 = type: cell-based; details: Melanoma; 10^−5 molar; 48 hours; SRB
MDA-MB-435 = type: cell-based; details: Melanoma; 10^−5 molar; 48 hours; SRB
SR = type: cell-based; details: Leukemia; 10^−5 molar; 48 hours; SRB
M14 = type: cell-based; details: Melanoma; 10^−5 molar; 48 hours; SRB
SF-295 = type: cell-based; details: CNS cancer; 10^−5 molar; 48 hours; SRB
NCI/ADR-RES = type: cell-based; details: Ovarian cancer; 10^−5 molar; 48 hours; SRB

CNc1nc2ccccc2c2c(=O)c3cc(Cl)ccc3sc12 [Compound N1, 10-Chloro-6-methylamino-12H-thiochromeno[2,3-c]quinolin-12-one]
Growth percent NCI-H522 (NCI-H522): 97.00%
Growth percent HCT-116 (HCT-116): 32.49%
Growth percent, Delta (60 cancer cell lines; delta over the cell panel): 66.31%
Growth percent, Mean (60 cancer cell lines; mean over the cell panel): 75.06%
Growth percent, Range (60 cancer cell lines; range over the cell panel): 122.91%
Growth percent MDA-MB-231/ATCC (MDA-MB-231/ATCC): 66.58%
Growth percent HL-60(TB) (HL-60(TB)): 131.66%
Growth percent OVCAR-8 (OVCAR-8): 31.61%
Growth percent HOP-62 (HOP-62): 79.39%
Growth percent NCI-H23 (NCI-H23): 44.39%
Growth percent SK-MEL-5 (SK-MEL-5): 80.13%
Growth percent ACHN (ACHN): 84.47%
Growth percent SF-539 (SF-539): 59.86%
Growth percent MALME-3M (MALME-3M): 72.46%
Growth percent HT29 (HT29): 114.79%
Growth percent 786-0 (786-0): 95.51%
Growth percent UACC-62 (UACC-62): 77.66%
Growth percent U251 (U251): 85.19%
Growth percent HOP-92 (HOP-92): 59.15%
Growth percent CAKI-1 (CAKI-1): 68.09%
Growth percent RPMI-8226 (RPMI-8226): 93.10%
Growth percent A549/ATCC (A549/ATCC): 51.68%
Growth percent CCRF-CEM (CCRF-CEM): 79.77%
Growth percent MOLT-4 (MOLT-4): 86.86%
Growth percent T-47D (T-47D): 42.13%
Growth percent BT-549 (BT-549): 108.49%
Growth percent HCT-15 (HCT-15): 68.73%
Growth percent SW-620 (SW-620): 84.37%
Growth percent OVCAR-5 (OVCAR-5): 86.91%
Growth percent LOX IMVI (LOX IMVI): 44.95%
melting point: 237 to 238 °C
Growth percent SNB-75 (SNB-75): 67.29%
Growth percent UACC-257 (UACC-257): 91.23%
Growth percent NCI-H226 (NCI-H226): 73.53%
Growth percent SF-268 (SF-268): 70.58%
Growth percent UO-31 (UO-31): 65.34%
Growth percent HCC-2998 (HCC-2998): 105.34%
Growth percent PC-3 (PC-3): 61.41%
Growth percent SK-MEL-2 (SK-MEL-2): 110.10%
Growth percent HS 578T (HS 578T): 82.63%
Growth percent SNB-19 (SNB-19): 96.48%
Growth percent TK-10 (TK-10): 81.21%
Growth percent K-562 (K-562): 40.69%
Growth percent KM12 (KM12): 68.75%
Growth percent SK-OV-3 (SK-OV-3): 88.67%
Growth percent A498 (A498): 82.89%
Growth percent SN12C (SN12C): 92.52%
Growth percent NCI-H460 (NCI-H460): 73.84%
Growth percent MDA-MB-486 (MDA-MB-486): 8.75%
Growth percent OVCAR-4 (OVCAR-4): 71.33%
Growth percent RXF 393 (RXF 393): 84.52%
Growth percent MCF7 (Table 2: MCF) (MCF7): 23.26%
Growth percent DU-145 (DU-145): 80.29%
Growth percent IGROV1 (IGROV1): 67.97%
Growth percent COLO 205 (COLO 205): 94.82%
Growth percent SK-MEL-28 (SK-MEL-28): 83.41%
Growth percent MDA-MB-435 (MDA-MB-435): 84.97%
Growth percent SR (SR): 47.76%
Growth percent M14 (M14): 105.85%
Growth percent SF-295 (SF-295): 89.04%
Growth percent NCI/ADR-RES (NCI/ADR-RES): 70.95%
